Experimental data as given in DBAASP.
Converted amounts (≈) assume the structure as drawn. Blank lines part the entries; values can stand above or below the compound they belong to.

Key:
Test in all cases: ≥ marks a high value that may be exact or a test limit, other limits are often not marked, values filed in µg/mL are converted to µM
[1] = tested on: Candida tropicalis ATCC 20240
[2] = tested on: Candida krusei ATCC 6258
[3] = tested on: Candida albicans ATCC 2048
[4] = tested on: Candida glabrata ATCC 90525
[5] = tested on: Candida parapsilosis ATCC 20224
[6] = tested on: Staphylococcus aureus ATCC 43300
[7] = tested on: Vibrio cholerae CUN 09
[8] = tested on: Candida albicans KCTC 7270
[9] = tested on: Trichoderma viride KCTC 16992
[10] = tested on: Candida albicans CCARM 14001
[11] = tested on: Fusarium graminearum KCTC 16656
[12] = tested on: Trichophyton rubrum KCTC 6345
[13] = tested on: Candida albicans CCARM 14007
[14] = tested on: Candida krusei CCARM 14017
[15] = tested on: Aspergillus flavus KCTC 6905
[16] = tested on: Candida parapsilosis CCARM 14016
[17] = tested on: Candida albicans CCARM 14004
[18] = tested on: Trichoderma virens KCTC 16924
[19] = tested on: Fusarium oxysporum KCTC 16909
[20] = tested on: Fusarium solani KCTC 6326
[21] = tested on: Candida albicans CCARM 14020
[22] = tested on: Colletotrichum gloeosporioides KCTC 6169
[23] = tested on: Fusarium verticillioides KCTC 6149
[24] = tested on: Staphylococcus aureus ATCC 25923
[25] = tested on: Listeria monocytogenes EGD
[26] = tested on: Pseudomonas aeruginosa ATCC 9027
[27] = tested on: Staphylococcus aureus ATCC 33591
[28] = tested on: Acinetobacter baumannii ATCC BAA-1605
[29] = tested on: Pseudomonas aeruginosa ATCC 27853
[30] = tested on: Escherichia coli ATCC 25922
[31] = tested on: Escherichia coli ATCC 43827
[32] = tested on: Staphylococcus aureus CCARM 3090
[33] = tested on: Salmonella typhimurium KCTC 1926
[34] = tested on: Staphylococcus aureus CCARM 3095
[35] = tested on: Pseudomonas aeruginosa CCARM 2109
[36] = tested on: Bacillus subtilis KCTC 3068
[37] = tested on: Pseudomonas aeruginosa KCTC 1637
[38] = tested on: Staphylococcus epidermidis KCTC 1917
[39] = tested on: Staphylococcus aureus CCARM 3089
[40] = tested on: Pseudomonas aeruginosa CCARM 2095
[41] = tested on: Enterococcus faecium ATCC 51559
[42] = tested on: Staphylococcus aureus NCTC 10788
[43] = tested on: Staphylococcus aureus ATCC 12493
[44] = tested on: Escherichia coli NCTC 10418
[45] = tested on: Enterococcus faecalis NCTC 12697
[46] = tested on: Candida albicans NCTC 1467

Structure (SMILES): CC[C@H](C)[C@H](NC(=O)[C@H](CO)NC(=O)[C@H](CC(C)C)NC(=O)[C@@H](NC(=O)[C@H](CCCN=C(N)N)NC(=O)[C@@H](N)CCC(=O)O)[C@@H](C)CC)C(=O)N[C@@H](CC(C)C)C(=O)N[C@@H](CCCN=C(N)N)C(=O)N[C@@H](Cc1cnc[nH]1)C(=O)N[C@@H](CCC(N)=O)C(=O)N[C@@H](CC(N)=O)C(=O)N[C@@H](CC(C)C)C(=O)N[C@@H](CC(C)C)C(=O)N[C@@H](CCCCN)C(=O)N[C@@H](CCC(=O)O)C(=O)O [ERILSILRHQNLLKE]
MIC [1]: ≥ 73 µM
MIC [2]: ≥ 130 µM
MIC [3]: ≥ 130 µM
MIC [4]: ≥ 110 µM
MIC [5]: ≥ 130 µM

Structure (SMILES): NCCCC[C@H](NC(=O)[C@H](CCCCN)NC(=O)[C@H](Cc1cnc[nH]1)NC(=O)[C@H](CCCCN)NC(=O)[C@H](CCCCN)NC(=O)[C@H](Cc1cnc[nH]1)NC(=O)[C@H](CCCCN)NC(=O)[C@H](CCCCN)NC(=O)[C@H](Cc1cnc[nH]1)NC(=O)[C@H](CCCCN)NC(=O)[C@H](CCCCN)NC(=O)[C@H](Cc1cnc[nH]1)NC(=O)[C@H](CCCCN)NC(=O)[C@H](CCCCN)NC(=O)[C@H](Cc1cnc[nH]1)NC(=O)[C@H](CCCCN)NC(=O)[C@H](CCCCN)NC(=O)[C@@H](N)Cc1cnc[nH]1)C(N)=O [HKKHKKHKKHKKHKKHKK]
MIC [8]: 16 µM (≈ 38 µg/mL)
MIC [9]: 2 µM (≈ 4.76 µg/mL)
MIC [10]: 16 µM (≈ 38 µg/mL)
MIC [11]: 8 µM (≈ 19 µg/mL)
MIC [12]: 8 µM (≈ 19 µg/mL)
MIC [13]: 16 µM (≈ 38 µg/mL)
MIC [14]: 4 µM (≈ 9.51 µg/mL)
MIC [15]: 4 µM (≈ 9.51 µg/mL)
MIC [16]: 16 µM (≈ 38 µg/mL)
MIC [17]: 16 µM (≈ 38 µg/mL)
MIC [18]: 8 µM (≈ 19 µg/mL)
MIC [19]: 2 µM (≈ 4.76 µg/mL)
MIC [20]: 2 µM (≈ 4.76 µg/mL)
MIC [21]: 16 µM (≈ 38 µg/mL)
MIC [22]: 1 µM (≈ 2.38 µg/mL)
MIC [23]: 2 µM (≈ 4.76 µg/mL)

Structure (SMILES): CC[C@H](C)[C@H](NC(=O)[C@H](Cc1ccccc1)NC(=O)[C@H](CCCN=C(N)N)NC(=O)[C@@H](N)CCCCN)C(=O)N[C@@H](CCCCN)C(=O)N[C@@H](Cc1c[nH]c2ccccc12)C(=O)N[C@@H](Cc1ccc(O)cc1)C(=O)N[C@@H](CC(N)=O)C(=O)N[C@@H](C)C(=O)N[C@@H](Cc1c[nH]c2ccccc12)C(=O)N[C@@H](CC(N)=O)C(=O)N[C@@H](CCC(=O)O)C(=O)N[C@@H](CCCCN)C(=O)N[C@@H](CCCN=C(N)N)C(=O)N[C@@H](CCCN=C(N)N)C(=O)N[C@H](C(=O)N[C@@H](Cc1ccc(O)cc1)C(N)=O)C(C)C [KRFIKWYNAWNEKRRVY]
MIC [32]: 8 µM (≈ 18.9 µg/mL)
MIC [33]: 4 µM (≈ 9.43 µg/mL)
MIC [34]: 8 µM (≈ 18.9 µg/mL)
MIC [35]: 16 µM (≈ 37.7 µg/mL)
MIC [36]: 8 µM (≈ 18.9 µg/mL)
MIC [37]: 16 µM (≈ 37.7 µg/mL)
MIC [38]: 8 µM (≈ 18.9 µg/mL)
MIC [39]: 8 µM (≈ 18.9 µg/mL)
MIC [40]: 4 µM (≈ 9.43 µg/mL)
MIC [41]: 8 µM (≈ 18.9 µg/mL)

Structure (SMILES): CC[C@H](C)[C@H](NC(=O)CN)C(=O)N[C@@H](CCSC)C(=O)N[C@@H](CC(=O)O)C(=O)N[C@H](C(=O)N[C@H](C(=O)N[C@@H](CCCCN)C(=O)N[C@@H](CC(N)=O)C(=O)N[C@@H](C)C(=O)N[C@@H](C)C(=O)N[C@@H](CCCCN)C(=O)N[C@@H](CC(N)=O)C(=O)N[C@@H](CC(C)C)C(=O)N[C@@H](C)C(=O)NCC(=O)N[C@@H](CCC(N)=O)C(=O)N[C@@H](CC(C)C)C(=O)N[C@@H](CC(C)C)C(=O)N[C@@H](CC(=O)O)C(=O)N[C@@H](CCCCN)C(=O)N[C@@H](CC(C)C)C(=O)N[C@@H](CCCCN)C(=O)N[C@H]1CSSC[C@@H](C(=O)O)NC(=O)[C@H](C)NC(=O)[C@H]([C@@H](C)O)NC(=O)[C@H]([C@@H](C)CC)NC(=O)[C@H](CCCCN)NC1=O)C(C)C)[C@@H](C)O [GIMDTVKNAAKNLAGQLLDKLKCKITAC]
MIC [42]: ≥ 32 µM
MIC [43]: ≥ 256 µM
MIC [44]: ≥ 32 µM
MIC [29]: > 512 µM
MIC [45]: ≥ 128 µM
MIC [46]: ≥ 256 µM

Further lines, with some results ahead:

MIC [6]: 6.05 µM (≈ 16 µg/mL)
Structure (SMILES): CC(C)C[C@H](NC(=O)[C@H](CCCCN)NC(=O)CNC(=O)[C@H](CCCCN)NC(=O)[C@H](Cc1ccccc1)NC(=O)[C@H](CCCCN)NC(=O)[C@H](Cc1c[nH]c2ccccc12)NC(=O)[C@H](CCCN=C(N)N)NC(=O)[C@H](Cc1ccccc1)NC(=O)[C@H](CCCN=C(N)N)NC(=O)[C@H](CCCN=C(N)N)NC(=O)[C@H](Cc1ccc(O)cc1)NC(=O)[C@H](CCCCN)NC(=O)[C@H](CCCCN)NC(=O)[C@H](CS)NC(=O)CN)C(=O)N[C@@H](Cc1c[nH]c2ccccc12)C(=O)N[C@@H](CC(C)C)C(=O)N[C@@H](Cc1c[nH]c2ccccc12)C(=O)NCC(N)=O [GCKKYRRFRWKFKGKLWLWG]
MIC [7]: 12.1 µM (≈ 32 µg/mL)

MIC [24]: 128 µM (≈ 313 µg/mL)
MIC [25]: ≥ 128 µM
MIC [26]: 209 µM (≈ 512 µg/mL)
MIC [27]: ≥ 209 µM
MIC [28]: ≥ 105 µM
MIC [29]: 128 µM (≈ 313 µg/mL)
MIC [30]: 128 µM (≈ 313 µg/mL)
MIC [31]: ≥ 209 µM
Structure (SMILES): CC[C@H](C)[C@H](NC(=O)[C@H](Cc1ccccc1)NC(=O)[C@H](CCCCN)NC(=O)[C@H](CC(N)=O)NC(=O)[C@H](CC(C)C)NC(=O)[C@H](CCC(N)=O)NC(=O)CN)C(=O)N[C@@H](CCCCN)C(=O)N[C@@H](CCCCN)C(=O)N[C@@H](C)C(=O)N[C@@H](CCC(N)=O)C(=O)N[C@@H](CCCN=C(N)N)C(=O)N[C@@H](CCCCN)C(=O)N[C@@H](Cc1ccccc1)C(=O)N[C@@H](Cc1cnc[nH]1)C(=O)N[C@@H](CCC(=O)O)C(=O)N[C@@H](CCCCN)C(=O)N[C@@H](Cc1ccccc1)C(=O)N[C@@H](C)C(=O)N[C@@H](CCCCN)C(N)=O [GQLNKFIKKAQRKFHEKFAK]
